Experimental data: patent publication US20110151455A1, “Fish-ribosyn for antibiotic susceptibility testing” (University of South Florida, priority 2006, published 2011)
Values after ≈ are worked out from the molar mass of the structure shown. “Also recorded” adds a separate entry of the source.

Legend:
[1] = system: Acinetobacter lwoffii (ATCC 15309); test: Optical density of antibiotic treated batch cultures; format: cell-based; conditions: experimental batch culture compared to control
Experimental: Acinetobacter lwoffii (ATCC 15309) was cultured on nutrient agar plates inoculated from a frozen glycerol/bead stock. After incubation for 24 hours at 32° C., a single colony was removed from the plate with a sterile loop and streaked on a second nutrient agar plate. The sterile loop was then submerged in a test tube containing 10 mL of […] which was incubated for 12 hours and 1 mL of grown culture was added to 1 mL of 4% paraformaldehyde (PFA) and incubated for 1 hour. The sample was then centrifuged at 10,000 G for 5 minutes, the supernatant decanted, and the cell pellet resuspended in ethanol PBS. Fluorescence in situ hybridization (FISH) with a genus specific probe was performed on this sample to verify culture purity before proceeding with the experiment. After culture purity was verified, the plated culture was incubated for 24 hours and a single colony was picked with a sterile loop and transferred to a 10 mL test tube of nutrient broth and incubated for 14 hours. The primary culture for this experiment was inoculated by transferring 1 mL from the test tube to a 100 mL nutrient broth flask. The optical density (OD at wavelength of 600 nm) of the culture was monitored over time until OD=0.449. […] These samples were then centrifuged at 10,000 G for 5 minutes, the supernatant decanted and cell pellets resuspended in ethanol PBS and stored at −20° C. until evaluated by FISH.

[2] = system: Acinetobacter lwoffii (ATCC 15309); test: FISH-RiboSyn of antibiotic treated batch cultures (dF/dt); format: cell-based; parameters: ratio of dF/dt compared to the control: concentration or dose not given beside the values; conditions: for effect on ribosome synthesis: in words
Experimental: Acinetobacter lwoffii (ATCC 15309) was cultured on nutrient agar plates inoculated from a frozen glycerol/bead stock. After incubation for 24 hours at 32° C., a single colony was removed from the plate with a sterile loop and streaked on a second nutrient agar plate. The sterile loop was then submerged in a test tube containing 10 mL of […] which was incubated for 12 hours and 1 mL of grown culture was added to 1 mL of 4% paraformaldehyde (PFA) and incubated for 1 hour. The sample was then centrifuged at 10,000 G for 5 minutes, the supernatant decanted, and the cell pellet resuspended in ethanol PBS. Fluorescence in situ hybridization (FISH) with a genus specific probe was performed on this sample to verify culture purity before proceeding with the experiment. After culture purity was verified, the plated culture was incubated for 24 hours and a single colony was picked with a sterile loop and transferred to a 10 mL test tube of nutrient broth and incubated for 14 hours. The primary culture for this experiment was inoculated by transferring 1 mL from the test tube to a 100 mL nutrient broth flask. The optical density (OD at wavelength of 600 nm) of the culture was monitored over time until OD=0.449. At this time 10 mL of culture was transferred to four separate flasks containing 90 mL of nutrient broth and an appropriate amount of antibiotic. […] (Wisplinghoff et al. (2000)). Flask 4 was untreated as a control culture. At the same time, 9 mL of the primary culture was added to a 50 mL conical containing 1 mL of 1 mg/mL chloramphenicol for a final concentration of 100 μg/mL. Samples of 1 mL were taken from the chloramphenicol treated cell culture at 0, 5, 10, 15, and 20 minutes and incubated in 1 mL of 4% PFA for at least one hour. These samples were then centrifuged at 10,000 G for 5 minutes, the supernatant decanted and cell pellets resuspended in ethanol PBS and stored at −20° C. until evaluated by FISH.
A dilution series of a growing culture of A. lwoffii was previously used to determine the relationship between OD (at 600 nm) and CFU/mL by plating diluted samples on nutrient agar plates at various values of OD and performing plate counts.
Treated flasks were allowed to incubate for 30 minutes and which time 9 mL of the primary culture was added to a 50 mL conical containing 1 mL of 1 mg/mL chloramphenicol for a final concentration of 100 μg/mL. Samples of 1 mL were taken from the chloramphenicol treated cell culture at 0, 5, 10, 15, and 20 minutes and incubated in 1 mL of 4% PFA for at least one hour. These samples were then centrifuged at 10,000 G for 5 minutes, the supernatant decanted and cell pellets resuspended in ethanol PBS and stored at −20° C. until evaluated by FISH. This was repeated for each flask at 90, 150, and 210 minutes of incubation with the antibiotic.
All images were analyzed using the Image-Pro Plus (v6.2.0.424) software package. Only single cells or diplococci were included in analysis. Images were thresholded using the “Automatic Bright Objects” option in the measurement console. Occasionally this algorithm excluded dim objects if bright objects were present. In these cases the manual thresholding was used to find the optimal thresholding range. […] The highest size threshold used for these cells was 5,000 pixels^2.

[3] = system: Acinetobacter baumannii^T; test: Minimum inhibitory concentration (MIC) determination; format: cell-based; conditions: ATCC19606, A. baumannii^T, ATCC 19606
[4] = system: Acinetobacter baumannii CBD1311; test: as above; format: cell-based; conditions: A. baumannii CBD1311
[5] = system: A. baumannii^T; test: FISH-RiboSyn antibiotic susceptibility testing (rate of ribosome synthesis, pre-16S rRNA); format: cell-based, Acinetobacter baumannii; conditions: for initial mean whole cell fluorescence: prior to chloramphenicol, 8-bit intensity
Experimental: (§1) Sample collection. When it was observed that a culture was in mid-log growth phase (OD of approximately 0.4) 50 mL of the culture was transferred to a sterile flask and subjected to chloramphenicol at a final concentration of 200 mg/L. Samples (1 mL) were collected from the sub-culture every five minutes (including a sample at time zero) for a total of 20 minutes. Each sample was centrifuged at 10,000 G for 2 minutes, the supernatant was decanted, and the resulting cell pellet was resuspended in 1 mL of 4% PFA for 12-24 hours. The samples were centrifuged and supernatant decanted, as previously described, and resuspended in 2 mL of ethanol PBS (EtOH-PBS). The samples were stored at −20° C. until further analysis.
(§2) To test the effects of the antibiotic doxycycline, doxycycline (Fisher Scientific) stock solution (1 mg/mL) was added to 100-mL of fresh, sterile nutrient broth for a final concentration of 8 μg/mL. A sample from an actively growing culture (10 mL) was added to the doxycycline/nutrient broth for a final volume of 110 mL. The aforementioned transfers were performed for both the resistant strain A. baumannii CBD1311 (OD=0.378) and a susceptible strain A. baumannii^T (OD=0.324). […] Transfers were performed for A. baumannii CBD1311 (OD=0.338) and A. baumannii^T (OD=0.365) and the dilutions were sufficient to ensure that the culture was below a McFarland standard of 0.5. Additionally, controls were implemented for each transfer where an additional 10 mL of the appropriate culture was combined with 100 mL of fresh sterile nutrient broth without an antibiotic. All cultures were incubated at 32° C. and shaken continuously (200 rpm).
(§3) A fluorescently-labeled oligonucleotide hybridization probe, Acin1543, targeting the pre-16S rRNA for members of the genus Acinetobacter was synthesized (5′-[…]-3′) (SEQ ID NO:1) and conjugated with the cyanine dye, Cy3, before purification with oligonucleotide probe purification cartridges (Oerther et al. (2000b)). Fluorescently labeled probes were diluted to 50 ng/μL with RNase-free water and stored at −20° C. in the dark. Fixed samples were applied to a sample well on a 10 well Heavy Teflon Coated microscope slide (Cel-Line Associates, New Field, N.J.) and air-dried. After dehydration with an increasing ethanol series (50, 80, 95% [vol/vol] ethanol, 1 min each), each sample well was covered with a mixture of 18 μL of hybridization buffer (20% [vol/vol] formamide, 0.9 M NaC1, 100 mM Tris HCl [pH 7.0], 0.1% SDS) (DelosReyes et al. (1997)) and 2 μL of the stock fluorescently labeled oligonucleotide probe. The hybridizations were conducted in a moisture chamber containing excess hybridization buffer (to prevent dehydration of buffer on sample wells) for 1.5 h, in the dark, at 46° C. The slides were washed for 30 min at 48° C. with 50 mL of pre-warmed washing buffer solution (215 mM NaCl, 20 mM Tris HCl [pH 7.0], 0.1% SDS, and 5 mM EDTA) (DelosReyes et al. (1997)). Fixed, hybridized cells were mounted with Type FF immersion oil (Cargille, Cedar Grove, N.J.) and a cover slip. Cells were stained with 4′, 6-diamidino-2-phenylindole (DAPI) at a concentration of 1 μg/mL for 1 minute and rinsed with DI water.
(§4) Image Capture. Whole cell fluorescence was visualized with an upright epiflourescence microscope (Leitz DiaPlan, Heerbrugg, Switzerland), and digital images were captured using a Spot-FLEX charge coupled device (CCD) camera (Diagnostic Instruments, Inc., Sterling Heights, Mich.). Images were collected using a 100× oil objective and constant exposure time (1.1 sec for experiment I; 3.0 sec for experiment 2) and gain of 2.

[6] = system: A. baumannii CBD1311; test: as above; format: cell-based, Acinetobacter baumannii; conditions: 30 minutes of antibiotic exposure; for dF/dtcm (rate of ribosome synthesis): doxycycline 8 μg/mL or levofloxacin 2 μg/mL
Experimental: as §1, §2, §3, §4

[7] = system: A. baumannii^T; test: Growth of antibiotic treated culture by optical density (OD); format: cell-based, Acinetobacter baumannii; conditions: susceptible strain; levofloxacin 2 μg/mL
Experimental: Culturing. Four Acinetobacter strains (Table 1) were maintained on nutrient agar (Difco) at 35° C. Prior to each experiment, a single colony was used to inoculate an overnight culture of nutrient broth (Difco). Experimental cultures were prepared by transferring 1 mL of culture to a flask containing 100 mL of nutrient broth. The relationship between optical density (OD at 600 nm) and cell concentration (CFU/mL) was determined by collecting samples between an OD of 0.1 and 0.6. The samples were serially diluted (10^−4-10^−7) in sterile nutrient broth and 100 μL of diluted sample was spread on nutrient agar plates in replicates of 5. After 24 hours of incubation at 35° C., colonies were counted on plates which contained between 20 and 200 colonies.
To test the effects of the antibiotic doxycycline, doxycycline (Fisher Scientific) stock solution (1 mg/mL) was added to 100-mL of fresh, sterile nutrient broth for a final concentration of 8 μg/mL. A sample from an actively growing culture (10 mL) was added to the doxycycline/nutrient broth for a final volume of 110 mL. The aforementioned transfers were performed for both the resistant strain A. baumannii CBD1311 (OD=0.378) and a susceptible strain A. baumannii^T (OD=0.324). […]

[8] = antibiotic exposure 30 min, ampicillin 2 μg/mL, ciprofloxacin 0.25 μg/mL, doxycycline 500 μg/mL
[9] = 90 minutes of antibiotic exposure, doxycycline 8 μg/mL or levofloxacin 2 μg/mL

In the case of `CC1(C)S[C@@H]2[C@H](NC(=O)[C@H](N)c3ccccc3)C(=O)N2[C@H]1C(=O)O` [Ampicillin], the “impact on optical density” value [1] is reported as “mild impact”, the “ratio of dF/dt compared to the control” value ([2]; antibiotic exposure 30 min) is reported as 93% and the dF/dt [2, 8] is reported as 4.7. The dF/dt ([2]; antibiotic exposure 90 min) was 5.06, the “ratio of dF/dt compared to the control” value ([2]; antibiotic exposure 90 min) was 152% and the dF/dt ([2]; antibiotic exposure 150 min) was 2.86. The dF/dt ([2]; antibiotic exposure 210 min) was 0, the “ratio of dF/dt compared to the control” value ([2]; antibiotic exposure 210 min) was 0% and the “effect on ribosome synthesis” value [2] was “impacted by the ampicillin after exposure for 150 and 210 min; also recorded: greater dF/dt than the control cells”. The cell morphology ([2]; long exposures (T=150 min)) was “elongated cells”.

`O=C(O)c1cn(C2CC2)c2cc(N3CCNCC3)c(F)cc2c1=O` [Ciprofloxacin] gave a dF/dt [2, 8] of 4.46, a dF/dt ([2]; antibiotic exposure 90 min) of 2.42 and a dF/dt ([2]; antibiotic exposure 150 min) of 0.254. The dF/dt ([2]; antibiotic exposure 210 min) was 0.308 and the “effect on ribosome synthesis” value [2] was “appear to not be synthesizing ribosomes after 150 min”.

In the case of `C[C@H]1c2cccc(O)c2C(=O)C2=C(O)[C@]3(O)C(=O)C(C(N)=O)=C(O)[C@@H](N(C)C)[C@@H]3[C@@H](O)[C@@H]21` [doxycycline], the MIC [3] is reported as no more than 0.125 µg/mL, the MIC [4] is reported as 16 µg/mL (≈ 36 µM) and the “ratio of dF/dt compared to the control” value ([2]; antibiotic exposure 30 min) is reported as 2%. The dF/dt [2, 8] was 0.1238, the dF/dt ([2]; antibiotic exposure 90 min) was 0 and the “ratio of dF/dt compared to the control” value ([2]; antibiotic exposure 90 min) was 0%. For the same molecule, the dF/dt ([2]; antibiotic exposure 150 min) was 0, the dF/dt ([2]; antibiotic exposure 210 min) was 0 and the “ratio of dF/dt compared to the control” value ([2]; antibiotic exposure 210 min) was 0%. The “initial mean whole cell fluorescence” value ([5]; 30 minutes of antibiotic exposure) was 59.6, the “dF/dtcm (rate of ribosome synthesis)” value [5, 9] was 1.38 and the “initial mean whole cell fluorescence” value ([6]; prior to chloramphenicol, 8-bit intensity) was “approximately 26”. For the same molecule, the “dF/dtcm (rate of ribosome synthesis)” value [6] was 4.95.

With `C[C@H]1COc2c(N3CCN(C)CC3)c(F)cc3c(=O)c(C(=O)O)cn1c23` [levofloxacin] the MIC [3] was 0.25 µg/mL (≈ 0.692 µM), the “delay before cessation of growth” value [7] was 60 min and the MIC [4] was 8 µg/mL (≈ 22.1 µM). For the same molecule, the “dF/dtcm (rate of ribosome synthesis)” value ([5]; 30 minutes of antibiotic exposure, doxycycline 8 μg/mL or levofloxacin 2 μg/mL) was 2.23, the “initial mean whole cell fluorescence” value ([5]; 90 minutes of antibiotic exposure) was 71 and the “dF/dtcm (rate of ribosome synthesis)” value [5, 9] was 1.67. The “reduction in dF/dtcm compared to the control” value ([5]; 90 minutes of levofloxacin exposure) was greater than 50%, the “dF/dtcm (rate of ribosome synthesis)” value ([5]; after 60 minutes of exposure to levofloxacin (so in the source), 2 μg/mL) was 1.67 and the “dF/dtcm (rate of ribosome synthesis)” value [6] was 5.84.
